The text below walks through data of US9381191B2, “Imidazopyridine derivatives useful in treating diabetes” (METABRAIN RESEARCH, priority 2012, dated 2016).

Each structure is given as a SMILES string. Where a name gives a salt, the structure may show the parent alone.

The test system of one test is INS-1 cells. The experiment in a line: Stimulation test of insulin secretion by INS-1 cells. It is filed as cell-based. The settings on record: Rattus norvegicus, INS1, 1 h, insulin secretion by INS-1 cells in response to glucose; for insulin secretion, % of control at 10 µM: read-out: HGP % of ctrl @ 10 μM; for insulin secretion, % of control at 50 µM: read-out: HGP % of ctrl @ 50 μM. How it is done:
The different compounds were tested on an INS-1 beta-pancreatic line in order to evaluate their capability of potentializing the insulin secretion in response to glucose. Very briefly, the cells are cultivated in a culture medium, RPMI 1640 with 10 mM glucose containing 1 mM of sodium pyruvate, 50 μM of 2-mercaptoethanol, 2 mM of glutamine, 10 mM of HEPES, 100 IU/ml of penicillin, 100 μg/ml of streptomycin and 10% of inactivated fetal calf serum, as described by Asfari et al.. For the insulin secretion test, the INS-1 cells are sown and cultivated in 96-well plates. After 3 days of cultivation at 37° C. in a humid atmosphere (95% air/5% CO2), the medium is removed and the cells are incubated for 16 h in a medium containing 5 mM of glucose and 1% of inactivated fetal calf serum. On the day of the test, the cells are washed with a Krebs buffer (pH 7.4) containing 0.1% of bovine albumin and then pre-incubated for 30 min at 37° C. in this same buffer containing 2.8 mM of glucose. Finally, the cells are again washed with Krebs buffer and then incubated for 1 h in the buffer of the secretion test (Krebs, pH 7.4 containing 0.1% of bovine albumin and 3.5 mM of glucose and molecules to be evaluated). At the end of the test, the cell supernatant is recovered in order to measure therein the secreted insulin, by means of an ELISA kit using a rat anti-insulin antibody (ELISA Alpco Cat no. 80-INSRTH-E10). Each condition is tested in triplicate. The 3.5 mM glucose, the 10^−7M GLP-1 and the Forskoline 10^−7/IBMX 10^−5M mixtures are used as positive controls of the test. A compound stimulates the secretion of insulin if this factor is greater than or equal to 130% of the control for a given glucose dose.

For the next test, the system named is isolated rat hepatocytes. The experiment in a line: Hepatic production of glucose, 3 h incubation. It is filed as cell-based, Wistar rat. As to conditions: for activity at 50 µM / activity at 100 µM: Hepatocyte, rat hepatocytes; for activity at 50 µM: read-out: HGP % of ctrl @ 50 μM; for activity at 100 µM: read-out: HGP % of ctrl @ 100 μM. How it is done:
The hepatocytes are isolated from Wistar rat liver having fasted for 24 h after perfusion of collagenase in the portal vein. 1) The freshly isolated hepatocytes are sown in 6-well plates coated with collagen and containing an adhesion medium (Williams Medium). After adhesion, the medium is replaced with RPMI 1640 medium without any glucose, containing hydrocortisone (7·10^−5M) for a duration from 16 to 18 h. The next day, the glucose hepatic production test is conducted in a Krebs medium for 3 h. The basal conditions are cells incubated with only Krebs, the stimulated conditions are the cells placed in Krebs+lactate+pyruvate, the produced conditions are the cells exposed to chemical compounds in a Krebs/lactate/pyruvate medium. In the case when the compounds are dissolved in DMSO, all the conditions of the tests are met in the presence of a final concentration of 0.1% DMSO. The positive control of the test is the mercaptopicolinate known for its inhibitory action on hepatic production of glucose via the phosphoenolpyruvate carboxykinase. For short term treatments, the compounds are incubated for 3 h. For long term treatments, the compounds are incubated for 20 h at the moment when the hepatocytes are cultivated in RPMI and then added during the hepatic production test for 3 h. At the end of the 3 hours of incubation, the supernatant is recovered for measurement of glucose with a colorimetric method using glucose oxidase. The cells are lysed with a 0.1% NaOH aqueous solution in order to measure the amount of protein with the Lowry method. The results are expressed in mmol of glucose per mg of protein.

Regarding `CCOC(=O)CSCc1nc2ccc(Cl)cn2c1C#Cc1ccc(F)cc1` [Derivative 110, ethyl 2-[[6-chloro-3-[2-[4-(fluoro)-phenyl]ethynyl]imidazo[1,2-a]pyridin-2-yl]methylsulfanyl]acetate], in the test with INS-1 cells, the insulin secretion, % of control at 10 µM was 162% and the insulin secretion, % of control at 50 µM is 140%. Moreover, in the test on isolated rat hepatocytes, the activity at 50 µM came to 50% and the activity at 100 µM is 37%. Moreover, the “inhibition of hepatic production of glucose” value (shortened to “inhibition”) with isolated rat hepatocytes (with two doses) is recorded as “strongest inhibitions”.
With `COC(=O)c1cccc(OCc2nc3ccccn3c2C#Cc2cccc(C(F)(F)F)c2)c1` [Derivative 81, methyl 3-((3-((3-(trifluoromethyl)-phenyl)ethynyl)imidazo[1,2-a]pyridin-2-yl)methoxy)benzoate], in the test with INS-1 cells, the insulin secretion, % of control at 10 µM stood at 142% and the insulin secretion, % of control at 50 µM was 134%. Moreover, in the test on isolated rat hepatocytes, the activity at 50 µM was 76% and the activity at 100 µM is 47%. Further, the “inhibition” value with isolated rat hepatocytes (dose of 100 μM) is “strongest inhibitions”.
On to `O=C([O-])c1ccccc1OCc1nc2ccccn2c1C#Cc1ccccc1.[Na+]` [Derivative 92, sodium 2-((3-(phenylethynyl)imidazo-[1,2-a]pyridin-2-yl)methoxy)-benzoate], for which, in the test on INS-1 cells, the insulin secretion, % of control at 10 µM turned out to be 135% and the insulin secretion, % of control at 50 µM was determined as 211%. In the test on isolated rat hepatocytes, the activity at 50 µM was 58% and the activity at 100 µM stood at 39%. Besides, the “inhibition” value in the test with isolated rat hepatocytes (with two doses) is on record as “strongest inhibitions”.
As for `CCOC(=O)COCc1nc2ccccn2c1C#Cc1ccccc1` [Derivative 1, ethyl 2-((3-(phenylethynyl)-imidazo[1,2-a]pyridin-2-yl)-methoxy)acetate], in the test with INS-1 cells, the insulin secretion, % of control at 10 µM was determined as 121% and the insulin secretion, % of control at 50 µM stood at 211%. Besides, in the test on isolated rat hepatocytes, the activity at 50 µM was determined as 70% and the activity at 100 µM came out at 56%.
Turning to `CN(C)CCNC(=O)COCc1nc2ccccn2c1C#Cc1cccc(C(F)(F)F)c1` [Derivative 55, N-(2-(dimethylamino)ethyl)-2-((3-((3-(trifluoromethyl)-phenyl)ethynyl)imidazo[1,2-a]-pyridin-2-yl)methoxy)acetamide], in the test on INS-1 cells, the insulin secretion, % of control at 10 µM came out at 130% and the insulin secretion, % of control at 50 µM amounted to 135%.
As to `CCOC(=O)[C@@H](N)CSCc1nc2ccccn2c1C#Cc1cccc(C(F)(F)F)c1` [Derivative 113, ethyl (2R)-2-amino-3-[[3-[2-[3-(trifluoromethyl)phenyl]ethynyl]imidazo[1,2-a]pyridin-2-yl]methyl-sulfanyl]propanoate], in the test on INS-1 cells, the insulin secretion, % of control at 10 µM turned out to be 136% and the insulin secretion, % of control at 50 µM came out at 112%.
With `COC(=O)CN(C)Cc1nc2ccccn2c1C#Cc1cccc(C(F)(F)F)c1` [Derivative 72, methyl 2-(methyl((3-((3-(trifluoromethyl)-phenyl)ethynyl)-imidazo[1,2-a]pyridin-2-yl)methyl)amino)acetate], in the test on INS-1 cells, the insulin secretion, % of control at 10 µM is 172% and the insulin secretion, % of control at 50 µM came out at 151%.
In the case of `O=C(O)CSCc1nc2ccc(Cl)cn2c1C#Cc1ccc(F)cc1` [Derivative 117, 2-[[6-chloro-3-[2-(4-fluorophenyl)ethynyl]imidazo [1,2-a]pyridin-2-yl]methylsulfanyl]acetic acid], in the test with INS-1 cells, the insulin secretion, % of control at 10 µM worked out at 130% and the insulin secretion, % of control at 50 µM was found to be 137%. In addition, in the test with isolated rat hepatocytes, the activity at 50 µM came out at 55% and the activity at 100 µM is 43%. Moreover, the “inhibition” value with isolated rat hepatocytes (with two doses) is on record as “strongest inhibitions”.
For the compound `CCOC(=O)COCc1nc2ccccn2c1C#Cc1ccsc1` [Derivative 9, ethyl 2-((3-(thiophen-3-ylethynyl)-imidazo[1,2-a]pyridin-2-yl)methoxy)acetate], in the test with INS-1 cells, the insulin secretion, % of control at 10 µM is 116% and the insulin secretion, % of control at 50 µM was 175%.
As to `COC(=O)c1cccc(OCc2nc3ccccn3c2C#Cc2ccccc2)c1` [Derivative 87, methyl 3-((3-(phenylethynyl)-imidazo[1,2-a]pyridin-2-yl)methoxy)benzoate], in the test with INS-1 cells, the insulin secretion, % of control at 10 µM amounted to 182% and the insulin secretion, % of control at 50 µM is 167%. In the test with isolated rat hepatocytes, the activity at 50 µM was 43% and the activity at 100 µM was 25%. Further, the “inhibition” value with isolated rat hepatocytes (with two doses) is “strongest inhibitions”.
For `O=C(COCc1nc2ccccn2c1C#Cc1ccc(F)cc1)NO` [Derivative 59, 2-((3-((4-fluorophenyl)ethynyl)-imidazo[1,2-a]pyridin-2-yl)methoxy)-N-hydroxy acetamide], in the test on INS-1 cells, the insulin secretion, % of control at 10 µM was 134% and the insulin secretion, % of control at 50 µM is 220%. In addition, in the test on isolated rat hepatocytes, the activity at 50 µM came to 97% and the activity at 100 µM was determined as 45%. For the same compound, the “inhibition” value in the test on isolated rat hepatocytes (dose of 100 μM) was “strongest inhibitions”.
For the compound `CCOC(=O)CN(C)Cc1nc2ccc(Cl)cn2c1C#Cc1cccc(C(F)(F)F)c1` [Derivative 102, ethyl 2-[[6-chloro-3-[2-[3-(trifluoromethyl)phenyl]ethynyl]imidazo[1,2-a]pyridin-2-yl]methyl-methyl-amino]acetate], in the test on INS-1 cells, the insulin secretion, % of control at 10 µM was determined as 176% and the insulin secretion, % of control at 50 µM is 107%.
On to `COC(=O)c1ccccc1OCc1nc2ccccn2c1C#Cc1ccc(F)cc1` [Derivative 76, methyl 2-((3-((4-fluorophenyl)-ethynyl)imidazo[1,2-a]pyridin-2-yl)methoxy)benzoate], for which, in the test with INS-1 cells, the insulin secretion, % of control at 10 µM was found to be 156% and the insulin secretion, % of control at 50 µM is 202%. Further, in the test on isolated rat hepatocytes, the activity at 50 µM turned out to be 67% and the activity at 100 µM is 59%. The “inhibition” value in the test with isolated rat hepatocytes (dose of 100 μM) is “strongest inhibitions”.
Take `COc1cccn2c(C#Cc3cccc(C(F)(F)F)c3)c(CSCCO)nc12` [Derivative 130, 2-[[8-methoxy-3-[2-[3-(trifluoromethyl)phenyl]ethynyl]imidazo[1,2-a]pyridin-2-yl]methylsulfanyl]ethanol]: in the test on INS-1 cells, the insulin secretion, % of control at 10 µM stood at 150% and the insulin secretion, % of control at 50 µM amounted to 114%.
For the compound `OCCSCc1nc2ccc(Cl)cn2c1C#Cc1cccc(C(F)(F)F)c1` [Derivative 131, 2-[[6-chloro-3-[2-[3-(trifluoromethyl)phenyl]ethynyl]imidazo[1,2-a]pyridin-2-yl]methylsulfanyl]ethanol], the insulin secretion, % of control at 10 µM in the test with INS-1 cells is 131%.
With `CCOC(=O)CN(C)Cc1nc2ccccn2c1C#Cc1cccc(C(F)(F)F)c1` [Derivative 101, ethyl 2-[methyl-[[3-[2-[3-(trifluoromethyl)phenyl]ethynyl]imidazo[1,2-a]pyridin-2-yl]-methyl]amino]acetate hydrochloride], in the test on INS-1 cells, the insulin secretion, % of control at 10 µM came to 163% and the insulin secretion, % of control at 50 µM stood at 111%.
For the compound `CCOC(=O)COCc1nc2ccccn2c1C#Cc1ccc([N+](=O)[O-])cc1` [Derivative 5, ethyl 2-((3-((4-nitrophenyl)-ethynyl)imidazo[1,2-a]pyridin-2-yl)methoxy)acetate], in the test with INS-1 cells, the insulin secretion, % of control at 10 µM was 180% and the insulin secretion, % of control at 50 µM stood at 195%.
Take `CC(C)(CO)C(OCc1nc2ccccn2c1C#Cc1cccc(C(F)(F)F)c1)C(=O)O` (stereo not drawn) [Derivative 129, 4-hydroxy-3,3-dimethyl-2-[[3-[2-[3-(trifluoromethyl)phenyl]ethynyl]imidazo[1,2-a]pyridin-2-yl]methoxy]butanoic acid]: in the test on INS-1 cells, the insulin secretion, % of control at 10 µM was found to be 109% and the insulin secretion, % of control at 50 µM was determined as 146%.
For `O=C(O)COCc1nc2ccccn2c1C#Cc1ccc(OC(F)(F)F)c(F)c1` [Derivative 39, 2-((3-((3-fluoro-4-(trifluoro-methoxy)phenyl)ethynyl)imidazo [1,2-a]pyridin-2-yl)methoxy)acetic acid] the same measures were 121% and 137%.
